From patent US20220387370A1, “METHODS OF REDUCING NEUROLOGICAL DAMAGE IN WILSON DISEASE PATIENTS” (priority 2019, published 2022)
“Also recorded” adds a separate entry of the source. Where two headings read alike, the source gives them in different places.

Legend:
[1] = system: neurologic WD patients; settings: cited from earlier work
[2] = system: EA.hy926 cells; assay: Cu-albumin cell toxicity, CellTiter-Glo, EA.hy926; format: cell-based, human; settings: EA.hy926, 750 μM chelator
Procedure: (§1) SHSY5Y (human neuroblastoma), U87MG (human astrocytoma), EA.hy926 (human endothelium) and HepG2 (human hepatocellular carcinoma) cells were from ATCC (Wesel, Germany) and were cultured in Dulbecco's Modified Eagle Medium (DMEM) supplemented with 10% FCS (Biochrom, Berlin, Germany) and 1% antibiotic-antimycotic (Life Technologies, Carlsbad, USA). All cells were maintained at 37° C. in a humidified atmosphere with 5% CO2.

[3] = system: Atp7b^−/− rats; assay: Chelator treatment of WD rats: copper in serum, urine and feces (ICP-OES); format: in vivo, rat
Procedure: Control Atp7b^+/- and WD Atp7b^-/- rats were fed ad libitum with normal chow (1314; 13.89 mg Cu/kg; Altromin Spezialfutter GmbH, […], Germany) and tap water. All rats were healthy at treatment start and presented no signs of acute liver damage (serum AST <200 U/L and serum bilirubin <0.5 mg/dl). […] Untreated Atp7b^+/- and Atp7b^-/- rats served as controls. Urine and feces were collected at 24-hour intervals for which rats were housed individually in metabolic cages for 4 days. After a two-day resting period off treatment in normal cages and group housing, rats were sacrificed for serum collection.

[4] = in vivo; cited from earlier work
[5] = system: PBCEC monolayers; assay: Electron microscopy of tight junctions of PBCECs; format: cell-based, porcine; settings: copper-treated PBCECs, electron micrographs
Procedure: Electron microscopy of PBCECS grown on Transwell® inserts was performed as previously described (Ye, D., K. A. Dawson, and I. Lynch, Analyst, 2015. 140(1): p. 83-97) with minor modifications. Briefly, after fixation with 2.5% glutaraldehyde, cell monolayers were post-fixed with 1% osmium tetroxide for 30 min and dehydrated by ethanol.

[6] = system: PBCEC monolayers; assay: Copper in the basolateral compartment of the Transwell PBCEC model (ICP-MS/MS); format: cell-based, porcine; settings: 250 μM copper and 83.3 μM albumin, 250 μM chelator, after 48 h
From the text: (§2) For transepithelial resistance (TEER) experiments (Srinivasan, B., et al., J Lab Autom, 2015. 20(2): p. 107-26), cryopreserved primary porcine brain capillary endothelial cells (PBCECs) were thawed and seeded either on rat tail collagen-coated 96-well plates for cytotoxicity testing using the Neutral red assay (Repetto, G., A. del Peso, and J. L. Zurita, Nat Protoc, 2008. 3(7): p. 1125-31) or Transwell® inserts (area: 1.12 cm^2, pore size: 0.4 μm: Corning, N.Y., USA) for barrier integrity studies. Cells were cultured for 48 hours in Earle's Medium 199 supplemented with 10% FCS, 50 U penicillin/mL, 50 μg/mL streptomycin, 100 μg/mL gentamycin and 0.7 mM I-glutamine and maintained at 37° C. in a humidified atmosphere with 5% CO2. […] TEER and capacitance values were continuously monitored over 48 h using a CellZscope device (nanoAnalytics, Münster, Germany). Only PBCEC monolayers with initial TEER values >600Ωcm^2 and capacitance values between 0.45 and 0.6 μF/cm^2 were used for permeability studies (Bornhorst, J., et al., J Biol Chem, 2012. 287(21): p. 17140-51). The barrier integrity was calculated by normalizing the TEER values to the respective start values.

[7] = system: EA.hy926 and U87MG cells; assay: Electron microscopy of mitochondrial structure; format: cell-based, human; settings: electron micrographs, co-treatment with chelator
From the text: Electron microscopy of cells was done as previously described ([…]., et al., Cell Mol Gastroenterol Hepatol, 2018. 7(3): p. 571-596) on a 1200EX electron microscope (JEOL, […], Japan) at 60 kv. Pictures were taken with a […] digital camera (Olympus, Hamburg, Germany) and processed by the iTEM software package (analySIS FIVE, Olympus, Hamburg, Germany).

[8] = system: PBCEC monolayers; assay: TEER and capacitance of PBCEC monolayers (endothelial blood-brain barrier model); format: cell-based, porcine
From the text: as §2

[9] = system: HepG2 cells; assay: Cu-albumin cell toxicity, CellTiter-Glo, HepG2; format: cell-based, human; settings: HepG2, 750 μM chelator
Procedure: as §1

[10] = system: HepG2, EA.hy926, U87MG and SHSY5Y cells; assay: Toxicity of the chelator itself in a copper-free setting, CellTiter-Glo
Procedure: as §1

[11] = system: tight junction protein claudin-5; assay: Immunocytochemistry staining of claudin-5 in PBCEC monolayers; format: cell-based, porcine; settings: 250 μM copper and 83.3 μM albumin, 250 μM chelator
Procedure: Total copper was determined by ICP-MS/MS as previously described (Kopp, J. F., et al., J Trace Elem Med Biol, 2019. 54: p. 221-225). For the immunocytochemical staining of tight junction proteins, confluent PBCECs cultivated on Transwell® membrane inserts were processed as previously described ([…]., et al., Archives of Toxicology 2018. 92(2): p. 823-832). Briefly, PBCECs were fixed with formaldehyde and permeabilized using Triton X-100. After blocking of unspecific binding sites by albumin, the cells were incubated with the either anti-claudin 5 or anti-ZO-1 antibody (Zytomed Systems GmbH, Berlin, Germany). Following a second blocking step, the cells were treated with an Alexa Fluor® 488 conjugated secondary antibody (Invitrogen, Molecular Probes Inc., Eugene, USA). Hoechst 33258 (Merck, Darmstadt, Germany) was used to stain cell nuclei. Subsequently, membranes were cut out of the inserts and mounted in Aqua Poly/Mount (Polysciences Inc., Washington, USA). After a solidification period of 24 hours, the samples were evaluated using a DM6 B fluorescence microscope by Leica Microsystems CMS GmbH (Wetzlar, Germany) in combination with the Leica Application Suite X.

[12] = system: HepG2 cells; assay: Cellular copper content (ICP-OES), HepG2; format: cell-based, human; settings: 750 μM copper, 250 μM albumin, 750 μM chelator, vs Cu-albumin alone
From the text: (§3) Afterwards, cells were trypsinized and counted.

[13] = system: HepG2, EA.hy926, U87MG and SHSY5Y cells; settings: 750 μM copper, 250 μM albumin, 750 μM chelator
Procedure: 2×10^4 cells were seeded into each well of a 96-well plate and incubated overnight. […] Cell toxicity was either determined by CellTiter-Glo® assay (Promega, Madison, USA) or Trypan blue exclusion test.
Afterwards, cells were trypsinized and counted. Cell viability was determined by Trypan blue exclusion test.

[14] = system: EA.hy926 cells; assay: Cellular copper content (ICP-OES), EA.hy926; format: cell-based, human; settings: EA.hy926; 750 μM copper, 250 μM albumin, 750 μM chelator; vs Cu-albumin alone
From the text: as §3

[15] = system: HepG2, EA.hy926, U87MG and SHSY5Y cells; assay: Cu-albumin cell toxicity, CellTiter-Glo, all investigated cell lines; format: cell-based, human
Procedure: as §1

[16] = system: HepG2, EA.hy926, U87MG and SHSY5Y cells; assay: Cellular copper content (ICP-OES), all cell lines; format: cell-based, human; settings: 750 μM copper, 250 μM albumin, 750 μM chelator, 24 h; vs Cu-albumin alone
From the text: as §3

[17] = system: SHSY5Y cells; assay: Cellular copper content (ICP-OES), SHSY5Y; format: cell-based, human; settings: 750 μM copper, 250 μM albumin, 750 μM chelator, vs Cu-albumin alone
From the text: as §3

[18] = unit inferred; read-out: Kd (copper affinity); cited from earlier work

Q: With CC(C)(S)[C@@H](N)C(=O)O [DPA, (2S)-2-amino-3-methyl-3-sulfanylbutanoic acid, reference compound] as the compound, how does the “patients with dramatic symptom worsening” value ([1]; shortly upon treatment onset) read?
A: The value was 19-52%.

Q: What about the neurological worsening ([1]; treated patients) of the same compound?
A: Its neurological worsening is “frequently occur”.

Q: And the “CellTiterGlo-assessed cell viability / Cu-albumin toxicity” value [2]?
A: The value was “completely absent”.

Q: What about the fecal copper excretion ([3]; during treatment) of the same compound?
A: Its fecal copper excretion is “unchanged”.

Q: What about the urinary copper excretion ([3]; during treatment, urine collected over 24 h) of the same compound?
A: The urinary copper excretion was “significantly increased; also recorded: significant increase”.

Q: What about the serum copper levels ([3]; i.p. once daily for 4 consecutive days (ALXN1840 2.5 mg/kg bw, DPA 100 mg/kg bw), serum at sacrifice after resting period) of the same compound?
A: Its serum copper levels is “elevated blood copper was not observed”.

Q: And the “share of net copper intake found in the urine” value ([3]; upon DPA treatment, total net uptake 3.95 μmol/24 h)?
A: The value was 10%.

Q: What about the “copper found in the urine” value ([3]; upon DPA treatment, unpublished observation) of the same compound?
A: Its value is 0.4 μmol/24 h.

Q: What about the “blood peak after application” value [4] of the same compound?
A: The value was 1 to 3 h.

Q: And the “loss of electron-dense protein complexes at the cell-cell borders” value [5]?
A: The value was “not protected and not”.

Q: And the “copper in the basolateral compartment (copper influx)” value [6]?
A: The value was “could not be avoided”.

Q: What about the “Cu-albumin-induced alterations of mitochondrial structure” value [7] of the same compound?
A: The value was “no/minor effect; also recorded: no positive effect”.

Q: And the “transepithelial electrical resistance (TEER)” value ([8]; 250 μM copper and 83.3 μM albumin, 250 μM chelator, 48 h)?
A: The value was “not able to prevent the copper-induced TEER loss; also recorded: reduction of the TEER comparable to Cu-albumin treatment alone”.

Q: And the capacitance values ([8]; Cu-albumin treatment in the absence or presence of chelator)?
A: The capacitance values was “unaffected”.

Q: What about the “CellTiterGlo-assessed cell viability / Cu-albumin toxicity” value [9] of the same compound?
A: The value was “modest rescuing effect”.

Q: What about the non-toxic concentrations ([10]; copper-free setting) of the same compound?
A: Its non-toxic concentrations is “up to 2 mM”.

Q: What about the “CellTiterGlo-assessed cell viability with chelator alone” value ([10]; without external Cu-albumin addition) of the same compound?
A: Its value is “not observed”.

Q: What about the “claudin-5 staining pattern / copper-induced gap formation” value [11] of the same compound?
A: Its value is “could not prevent copper-induced gap formation; also recorded: did not prevent copper-induced gap formation”.

Q: And the cellular copper content [12]?
A: The cellular copper content was “highly similar cellular copper contents”.

Q: What about the “Trypan blue-assessed cell viability / copper-related cell toxicity” value [13] of the same compound?
A: Its value is “could not be avoided”.

Q: And the cellular copper content [14]?
A: The cellular copper content was “tendentiously lower copper content”.

Q: What about the “CellTiterGlo-assessed cell viability / Cu-albumin toxicity” value ([15]; 750 μM chelator, 250 μM albumin, copper 250 to 2500 μM, 24 h) of the same compound?
A: The value was “much less effective; also recorded: not significantly increased”.

Q: What about the “CellTiterGlo-assessed cell viability / Cu-albumin toxicity” value ([15]; low dose of chelator (250 μM)) of the same compound?
A: Its value is “no effect on cell viability”.

Q: What about the cellular copper content [16] of the same compound?
A: The cellular copper content was “in none of the cell lines a significant de-coppering was noted; also recorded: did not change the amount of copper uptake”.

Q: And the cellular copper content [17]?
A: Its cellular copper content is “tendentiously lower copper content”.

Q: Which neurological worsening ([1]; human, in vivo) does the source give for [SH-].[SH-].[S]=[Mo]=[S] [TTM, tetrathiomolybdate] here?
A: The neurological worsening was “hardly reported”.

Q: With N[C@@H](Cc1c[nH]cn1)C(=O)O [histidine] as the compound, how does the Kd [18] read?
A: The Kd was ~1 nM.
